Measurements as given in patent publication US20200347043A1, “MODULATORS OF THE INTEGRATED STRESS PATHWAY” (Calico Life Sciences LLC, priority 2019, published 2020).

test system: HEK293T cells carrying the ATF4 luciferase reporter; assay: ATF4-Luc assay (in vitro model of VWMD); assay type: cell-based, human; conditions: Homo sapiens, HEK-293T, 1 μg/mL tunicamycin, 7 hours, One Glo luminescence
How it was run: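 Stable HEK293T line expressing firefly luciferase behind the human ATF4 5′-UTR, treated with 1 μg/mL tunicamycin plus compound for 7 hours. Luminescence read with One Glo; EC50 determined.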

| Structure (SMILES) | EC50 |
| --- | --- |
| O=C(NC12CC(n3ccc(-c4ccc(Cl)c(F)c4)c3)(C1)C2)[C@H]1C[C@@H](O)c2cc(Cl)ccc2O1 [Compound 242, (2R,4R)-6-chloro-N-{3-[3-(4-chloro-3-fluorophenyl)-1H-pyrrol-1-yl]bicyclo[1.1.1]pentan-1-yl}-4-hydroxy-3,4-dihydro-2H-1-benzopyran-2-carboxamide] | < 10 nM |
| O=C(NC12CC(n3ccc(-c4ccc(Cl)c(F)c4)c3)(C1)C2)[C@@H]1C[C@@H](O)c2cc(Cl)ccc2O1 [Compound 243, (2S,4R)-6-chloro-N-{3-[3-(4-chloro-3-fluorophenyl)-1H-pyrrol-1-yl]bicyclo[1.1.1]pentan-1-yl}-4-hydroxy-3,4-dihydro-2H-1-benzopyran-2-carboxamide] | 50 to 250 nM |
| O=C(NC12CC(n3ccc(-c4ccc(C(F)(F)F)nc4)c3)(C1)C2)[C@H]1C[C@@H](O)c2cc(Cl)ccc2O1 [Compound 244, (2R,4R)-6-chloro-4-hydroxy-N-(3-{3-[6-(trifluoromethyl)pyridin-3-yl]-1H-pyrrol-1-yl}bicyclo[1.1.1]pentan-1-yl)-3,4-dihydro-2H-1-benzopyran-2-carboxamide] | < 10 nM |
| O=C(NC12CC(n3ccc(-c4ccc(C(F)(F)F)nc4)c3)(C1)C2)[C@@H]1C[C@@H](O)c2cc(Cl)ccc2O1 [Compound 245, (2S,4R)-6-chloro-4-hydroxy-N-(3-{3-[6-(trifluoromethyl)pyridin-3-yl]-1H-pyrrol-1-yl}bicyclo[1.1.1]pentan-1-yl)-3,4-dihydro-2H-1-benzopyran-2-carboxamide] | 50 to 250 nM |
| O=C(NC12CC(c3cc(-c4ccc(Cl)cc4)no3)(C1)C2)[C@H]1C[C@@H](O)c2cc(Cl)ccc2O1 [Compound 246, (2R,4R)-6-chloro-N-{3-[3-(4-chlorophenyl)-1,2-oxazol-5-yl]bicyclo[11.11]pentan-1-yl}-4-hydroxy-3,4-dihydro-2H-1-benzopyran-2-carboxamide] | 10 to 50 nM |
| O=C(NC12CC(c3cc(-c4ccc(Cl)cc4)no3)(C1)C2)[C@@H]1C[C@@H](O)c2cc(Cl)ccc2O1 [Compound 247, (2S,4R)-6-chloro-N-{3-[3-(4-chlorophenyl)-1,2-oxazol-5-yl]bicyclo[1.1.1]pentan-1-yl}-4-hydroxy-3,4-dihydro-2H-1-benzopyran-2-carboxamide] | 50 to 250 nM |
| O=C(NC12CC(c3cc(-c4ccc(Cl)c(F)c4)no3)(C1)C2)[C@H]1C[C@@H](O)c2cc(Cl)ccc2O1 [Compound 248, (2R,4R)-6-chloro-N-{3-[3-(4-chloro-3-fluorophenyl)-1,2-oxazol-5-yl]bicyclo[1.1.1]pentan-1-yl}-4-hydroxy-3,4-dihydro-2H-1-benzopyran-2-carboxamide] | 10 to 50 nM |
| O=C(NC12CC(c3cc(-c4ccc(Cl)c(F)c4)no3)(C1)C2)[C@@H]1C[C@@H](O)c2cc(Cl)ccc2O1 [Compound 249, (2S,4R)-6-chloro-N-{3-[3-(4-chloro-3-fluorophenyl)-1,2-oxazol-5-yl]bicyclo[11.11]pentan-1-yl}-4-hydroxy-3,4-dihydro-2H-1-benzopyran-2-carboxamide] | 50 to 250 nM |
| O=C(NC12CC(c3cc(-c4ccc(C(F)(F)F)nc4)no3)(C1)C2)[C@H]1C[C@@H](O)c2cc(Cl)ccc2O1 [Compound 250, (2R,4R)-6-chloro-4-hydroxy-N-(3-{3-[6-(trifluoromethyl)pyridin-3-yl]-1,2-oxazol-5-yl}bicyclo[1.1.1]pentan-1-yl)-3,4-dihydro-2H-1-benzopyran-2-carboxamide] | 50 to 250 nM |
| O=C(NC12CC(c3cc(-c4ccc(C(F)(F)F)nc4)no3)(C1)C2)[C@@H]1C[C@@H](O)c2cc(Cl)ccc2O1 [Compound 251, (2S,4R)-6-chloro-4-hydroxy-N-(3-{3-[6-(trifluoromethyl)pyridin-3-yl]-1,2-oxazol-5-yl}bicyclo[1.1.1]pentan-1-yl)-3,4-dihydro-2H-1-benzopyran-2-carboxamide] | > 2000 nM |
| O=C(NC12CC(c3ncc(-c4ccc(Cl)cc4)o3)(C1)C2)[C@H]1C[C@@H](O)c2cc(Cl)ccc2O1 [Compound 254, (2R,4R)-6-chloro-N-{3-[5-(4-chlorophenyl)-1,3-oxazol-2-yl]bicyclo[1.1.1]pentan-1-yl}-4-hydroxy-3,4-dihydro-2H-1-benzopyran-2-carboxamide] | < 10 nM |
| O=C(NC12CC(c3ncc(-c4ccc(Cl)cc4)o3)(C1)C2)[C@@H]1C[C@@H](O)c2cc(Cl)ccc2O1 [Compound 255, (2S,4R)-6-chloro-N-{3-[5-(4-chlorophenyl)-1,3-oxazol-2-yl]bicyclo[1.1.1]pentan-1-yl}-4-hydroxy-3,4-dihydro-2H-1-benzopyran-2-carboxamide] | 10 to 50 nM |
| O=C(NC12CC(c3cc(-c4ccc(Cl)cc4)on3)(C1)C2)[C@H]1C[C@@H](O)c2cc(Cl)ccc2O1 [Compound 256, (2R,4R)-6-chloro-N-{3-[5-(4-chlorophenyl)-1,2-oxazol-3-yl]bicyclo[1.1.1]pentan-1-yl}-4-hydroxy-3,4-dihydro-2H-1-benzopyran-2-carboxamide] | < 10 nM |
| O=C(NC12CC(c3cc(-c4ccc(Cl)cc4)on3)(C1)C2)[C@@H]1C[C@@H](O)c2cc(Cl)ccc2O1 [Compound 257, (2S,4R)-6-chloro-N-{3-[5-(4-chlorophenyl)-1,2-oxazol-3-yl]bicyclo[1.1.1]pentan-1-yl}-4-hydroxy-3,4-dihydro-2H-1-benzopyran-2-carboxamide] | 50 to 250 nM |
| O=C(NC12CC(c3cc(-c4ccc(Cl)c(F)c4)on3)(C1)C2)[C@H]1C[C@@H](O)c2cc(Cl)ccc2O1 [Compound 258, (2R,4R)-6-chloro-N-{3-[5-(4-chloro-3-fluorophenyl)-1,2-oxazol-3-yl]bicyclo[1.1.1]pentan-1-yl}-4-hydroxy-3,4-dihydro-2H-1-benzopyran-2-carboxamide] | < 10 nM |
| O=C(NC12CC(c3cc(-c4ccc(Cl)c(F)c4)on3)(C1)C2)[C@@H]1C[C@@H](O)c2cc(Cl)ccc2O1 [Compound 259, (2S,4R)-6-chloro-N-{3-[5-(4-chloro-3-fluorophenyl)-1,2-oxazol-3-yl]bicyclo[11.11]pentan-1-yl}-4-hydroxy-3,4-dihydro-2H-1-benzopyran-2-carboxamide] | 10 to 50 nM |
| O=C(NC12CC(c3cc(-c4ccc(C(F)(F)F)nc4)on3)(C1)C2)[C@H]1C[C@@H](O)c2cc(Cl)ccc2O1 [Compound 260, (2R,4R)-6-chloro-4-hydroxy-N-(3-{5-[6-(trifluoromethyl)pyridin-3-yl]-1,2-oxazol-3-yl}bicyclo[1.1.1]pentan-1-yl)-3,4-dihydro-2H-1-benzopyran-2-carboxamide] | 10 to 50 nM |
| O=C(NC12CC(c3cc(-c4ccc(C(F)(F)F)nc4)on3)(C1)C2)[C@@H]1C[C@@H](O)c2cc(Cl)ccc2O1 [Compound 261, (2S,4R)-6-chloro-4-hydroxy-N-(3-{5-[6-(trifluoromethyl)pyridin-3-yl]-1,2-oxazol-3-yl}bicyclo[1.1.1]pentan-1-yl)-3,4-dihydro-2H-1-benzopyran-2-carboxamide] | 50 to 250 nM |
| O=C(NC12CC(c3cnn(-c4ccc(C(F)(F)F)nc4)c3)(C1)C2)[C@H]1C[C@@H](O)c2cc(Cl)ccc2O1 [Compound 262, (2R,4R)-6-chloro-4-hydroxy-N-(3-{1-[6-(trifluoromethyl)pyridin-3-yl]-1H-pyrazol-4-yl}bicyclo[1.1.1]pentan-1-yl)-3,4-dihydro-2H-1-benzopyran-2-carboxamide] | < 10 nM |
| O=C(NC12CC(c3cnn(-c4ccc(C(F)(F)F)nc4)c3)(C1)C2)[C@@H]1C[C@@H](O)c2cc(Cl)ccc2O1 [Compound 263, (2S,4R)-6-chloro-4-hydroxy-N-(3-{1-[6-(trifluoromethyl)pyridin-3-yl]-1H-pyrazol-4-yl}bicyclo[1.1.1]pentan-1-yl)-3,4-dihydro-2H-1-benzopyran-2-carboxamide] | 10 to 50 nM |
| O=C(NC12CC(c3cnn(-c4ccc(Cl)cc4)c3)(C1)C2)[C@H]1C[C@@H](O)c2cc(Cl)ccc2O1 [Compound 264, (2R,4R)-6-chloro-N-{3-[1-(4-chlorophenyl)-1H-pyrazol-4-yl]bicyclo[1.1.1]pentan-1-yl}-4-hydroxy-3,4-dihydro-2H-1-benzopyran-2-carboxamide] | < 10 nM |
| O=C(NC12CC(c3cnn(-c4ccc(Cl)cc4)c3)(C1)C2)[C@@H]1C[C@@H](O)c2cc(Cl)ccc2O1 [Compound 265, (2S,4R)-6-chloro-N-{3-[1-(4-chlorophenyl)-1H-pyrazol-4-yl]bicyclo[1.1.1]pentan-1-yl}-4-hydroxy-3,4-dihydro-2H-1-benzopyran-2-carboxamide] | 10 to 50 nM |
| O=C(NC12CC(c3cc([C@H]4C[C@@H](OC(F)(F)F)C4)no3)(C1)C2)[C@H]1C[C@@H](O)c2cc(Cl)ccc2O1 [Compound 266, (2R,4R)-6-chloro-4-hydroxy-N-(3-{3-[cis-3-(trifluoromethoxy)cyclobutyl]-1,2-oxazol-5-yl}bicyclo[1.1.1]pentan-1-yl)-3,4-dihydro-2H-1-benzopyran-2-carboxamide] | 10 to 50 nM |
| O=C(NC12CC(N3CC([C@H]4C[C@@H](OC(F)(F)F)C4)OC3=O)(C1)C2)[C@H]1C[C@@H](O)c2cc(Cl)ccc2O1 (stereo partly drawn) [Compound 267, (2R,4R)-6-chloro-4-hydroxy-N-(3-{2-oxo-5-[cis-3-(trifluoromethoxy)cyclobutyl]-1,3-oxazolidin-3-yl}bicyclo[1.1.1]pentan-1-yl)-3,4-dihydro-2H-1-benzopyran-2-carboxamide] | 50 to 250 nM |
| O=C(NC12CC(c3cc([C@H]4C[C@@H](OC(F)(F)F)C4)no3)(C1)C2)[C@@H]1C[C@@H](O)c2cc(Cl)ccc2O1 [Compound 268, (2S,4R)-6-chloro-4-hydroxy-N-(3-{3-[cis-3-(trifluoromethoxy)cyclobutyl]-1,2-oxazol-5-yl}bicyclo[1.1.1]pentan-1-yl)-3,4-dihydro-2H-1-benzopyran-2-carboxamide] | 50 to 250 nM |
| O=C(NC12CC(N3CC([C@H]4C[C@@H](OC(F)(F)F)C4)OC3=O)(C1)C2)[C@@H]1C[C@@H](O)c2cc(Cl)ccc2O1 (stereo partly drawn) [Compound 269, (2S,4R)-6-chloro-4-hydroxy-N-(3-{2-oxo-5-[cis-3-(trifluoromethoxy)cyclobutyl]-1,3-oxazolidin-3-yl}bicyclo[1.1.1]pentan-1-yl)-3,4-dihydro-2H-1-benzopyran-2-carboxamide] | 250 to 500 nM |
